Data from patent publication US11319309B2, “Cyclohexyl acid isoxazole azines as LPA antagonists” (BRISTOL-MYERS SQUIBB COMPANY, priority 2017, dated 2022).

Test system: pancreatic cancer cell lines
Assay: not given
Conditions: highly peritoneal metastatic pancreatic cancer cell line (Yamada et al. 2004); cited from earlier work

In the case of `Cc1noc(-c2ccc(CSCCC(=O)O)cc2)c1NC(=O)OC(C)c1ccccc1Cl` (stereo not shown) [Ki16425], the “LPA-induced and ascites-induced invasion activity” value is given as “blocked”.

Same assay, conditions: pancreatic cancer cell lines (Yamada et al. 2004); cited from earlier work

In the case of `Cc1noc(-c2ccc(CSCCC(=O)O)cc2)c1NC(=O)OC(C)c1ccccc1Cl` (stereo not shown) [Ki16425], the “in vitro migration in response to LPA and peritoneal fluid (ascites)” value is listed as “effectively blocked”.

Test system: human foetal lung fibroblasts
Assay: not given
Conditions: induced by BAL obtained from IPF patients (Tager et al. 2008); cited from earlier work

For `Cc1noc(-c2ccc(CSCCC(=O)O)cc2)c1NC(=O)OC(C)c1ccccc1Cl` (stereo not shown) [Ki16425], the “chemotaxis of human foetal lung fibroblasts” value is listed as “blocked”.

Test system: mouse epithelial renal cell line, MCT
Assay: not given
Conditions: MCT cells, co-treatment with LPA; cited from earlier work

For `Cc1noc(-c2ccc(CSCCC(=O)O)cc2)c1NC(=O)OC(C)c1ccccc1Cl` (stereo not shown) [Ki16425], the “induction of CTGF expression by LPA” value is listed as “almost completely suppressed”.

Test system: nerve-injured mice
Assay: not given
Conditions: pretreatment, nerve-injured mice (Inoue et al. 2004); cited from earlier work

For `C[C@@H](N)[C@H]1CC[C@H](C(=O)Nc2ccncc2)CC1` [Example Y-27632], the allodynia and hyperalgesia is listed as “completely abolished”.

Test system: IPF patients
Assay: not given
Conditions: 26-week clinical trial, IPF patients (Palmer et al., Chest 2018); cited from earlier work

In the case of `Cc1noc(-c2ccc(-c3ccc(C4(C(=O)O)CC4)cc3)cc2)c1NC(=O)O[C@H](C)c1ccccc1` [BMS-986020], the “rate of FVC (forced vital capacity) decline” value is given as “significantly reduce”.

Test system: UUO mice
Assay: not given
Conditions: UUO mice treated with antagonist, compared with LPA1 (-/-) mice; cited from earlier work

For `Cc1noc(-c2ccc(CSCCC(=O)O)cc2)c1NC(=O)OC(C)c1ccccc1Cl` (stereo not shown) [Ki16425], the “development of renal fibrosis” value is listed as “closely resembled the profile of LPA1 (−/−) mice”.

Target: T1, human LPA1 (Homo sapiens, UniProt Q92633)
T1 construct: expressed in transfected cells; host or cells: Chinese hamster ovary (CHO) cells
T1 sequence (Q92633 whole entry): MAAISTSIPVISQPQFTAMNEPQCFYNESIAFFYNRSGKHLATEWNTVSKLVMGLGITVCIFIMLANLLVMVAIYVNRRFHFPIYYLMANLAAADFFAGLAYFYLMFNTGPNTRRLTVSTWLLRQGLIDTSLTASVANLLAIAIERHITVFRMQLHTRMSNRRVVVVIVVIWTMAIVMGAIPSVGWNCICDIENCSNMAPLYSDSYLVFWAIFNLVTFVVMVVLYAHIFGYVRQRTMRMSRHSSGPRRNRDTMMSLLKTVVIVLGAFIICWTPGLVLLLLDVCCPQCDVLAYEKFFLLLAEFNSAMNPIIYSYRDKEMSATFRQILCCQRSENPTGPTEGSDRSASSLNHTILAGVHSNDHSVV
Assay: LPA1 functional antagonist assay (calcium flux)
Assay type: cell-based
Conditions: CHO cells overexpressing human LPA1; inhibition of calcium flux induced by 10 nM LPA; read-out: hLPA1 IC50
Method: The effectiveness of compounds of the present invention as LPA1 inhibitors can be determined in an LPA1 functional antagonist assay as follows:
Chinese hamster ovary cells overexpressing human LPA1 were plated overnight (15,000 cells/well) in poly-D-lysine coated 384-well microplates (Greiner bio-one, Cat #781946) in DMEM/F12 medium (Gibco, Cat #11039). Following overnight culture, cells were loaded with calcium indicator dye (AAT Bioquest Inc, Cat #34601) for 30 minutes at 37° C. The cells were then equilibrated to room temperature for 30 minutes before the assay. Test compounds solubilized in DMSO were transferred to 384 well non-binding surface plates (Corning, Cat #3575) using the Labcyte Echo acoustic dispense and diluted with assay buffer [1X HBSS with calcium/magnesium (Gibco Cat #14025-092), 20 mM HEPES (Gibco Cat #15630-080) and 0.1% fatty acid free BSA (Sigma Cat # A9205)] to a final concentration of 0.5% DMSO. Diluted compounds were added to the cells by FDSS6000 (Hamamatsu) at final concentrations ranging from 0.08 nM to 5 μM. and were then incubated for 20 min at room temperature at which time LPA (Avanti Polar Lipids Cat #857130C) was added at final concentrations of 10 nM to stimulate the cells. The compound IC50 value was defined as the concentration of test compound which inhibited 50% of the calcium flux induced by LPA alone. IC50 values were determined by fitting data to a 4-parameter logistic equation (GraphPad Prism, San Diego Calif.).

Point of comparison: `Cc1noc(-c2ccc(O[C@H]3CCC[C@@H](C(=O)O)C3)cn2)c1CNc1nccc(-c2ccccc2)n1` [Example 16], IC50 14 nM. Against it:
- Cc1noc(-c2ccc(O[C@@H]3CCC[C@@H](C(=O)O)C3)cc2)c1COc1nccc(-c2ccccc2)n1 (racemic) [Example 30, (±)-Trans-3-(4-(3-methyl-4-(((4-phenylpyrimidin-2-yl)oxy)methyl)isoxazol-5-yl)phenoxy)cyclohexanecarboxylic Acid] — 3.4-fold higher, 47 nM
- Cc1noc(-c2ccc(O[C@H]3CCC[C@H](C(=O)O)C3)cn2)c1CNc1ncnc(C2CCC2)n1 [Example 27] — 2.4-fold higher, 33 nM
- Cc1nc(-c2onc(C)c2CNc2ncnc(C(C)C)n2)ccc1O[C@H]1CCC[C@H](C(=O)O)C1 [Example 2, (1 S,3 S)-3-((6-(4-(((4-isopropyl-1,3,5-triazin-2-yl)amino)methyl)-3-methylisoxazol-5-yl)-2-methylpyridin-3-yl)oxy)cyclohexane-1-carboxylic Acid] — 3.1-fold higher, 43 nM
- Cc1noc(-c2ccc(O[C@H]3CCC[C@H](C(=O)O)C3)cn2)c1CNc1nccc(Oc2ccccc2)n1 [Example 7] — 2.3-fold lower, 6 nM
- Cc1noc(-c2ccc(O[C@H]3CCC[C@](F)(C(=O)O)C3)cn2)c1CNc1nccc(-c2ccccc2)n1 [Example 6] — 1.8-fold lower, 7.8 nM
- Cc1noc(-c2ccc(O[C@H]3CCC[C@H](C(=O)O)C3)cn2)c1CNc1cc(-c2ccccc2)ccn1 [Example 5] — 1.5-fold higher, 21 nM
- Cc1noc(-c2ccc(O[C@@H]3CCC[C@@H](C(=O)O)C3)cc2)c1CNc1nccc(-c2ccccc2)n1 [Example 22] — 3.4-fold higher, 47 nM
- Cc1noc(-c2ccc(O[C@H]3CCC[C@@H](C(=O)O)C3)cn2)c1CNc1nccc(-c2ccccc2)n1 [Example 4] — 2.8-fold higher, 39 nM
- Cc1noc(-c2ccc(O[C@H]3CCC[C@H](C(=O)O)C3)cn2)c1CNc1ncnc(C(C)C)n1 [Example 26] — 2.7-fold higher, 38 nM
- Cc1noc(-c2ccc(O[C@H]3CCC[C@H](C(=O)O)C3)cn2)c1CNc1ncnc(C2CC2)n1 [Example 25] — 2.1-fold higher, 29 nM
- CCOc1ccnc(NCc2c(C)noc2-c2ccc(O[C@H]3CCC[C@H](C(=O)O)C3)c(C)n2)n1 [Example 17, (1S,3S)-3-((6-(4-(((4-Ethoxypyrimidin-2-yl)amino)methyl)-3-methylisoxazol-5-yl)-2-methylpyridin-3-yl)oxy)cyclohexane-1-carboxylic Acid] — 1.9-fold higher, 26 nM
- Cc1noc(-c2ccc(O[C@H]3CCC[C@H](C(=O)O)C3)cn2)c1CNc1nccc(-c2ccccc2)n1 [Example 1, (1S,3S)-3-((6-(3-methyl-4-(((4-phenylpyrimidin-2-yl)amino)methyl)isoxazol-5-yl)pyridin-3-yl)oxy) cyclohexane-1-carboxylic Acid] — the same, 14 nM
- Cc1nc(-c2onc(C)c2CNc2nccc(-c3ccccn3)n2)ccc1O[C@H]1CCC[C@H](C(=O)O)C1 [Example 14] — 4.6-fold higher, 64 nM
- Cc1cc(N2CCCCC2)nc(NCc2c(C)noc2-c2ccc(O[C@H]3CCC[C@H](C(=O)O)C3)cn2)n1 [Example 12] — 79-fold higher, 1100 nM
- Cc1noc(-c2ccc(O[C@H]3CCC[C@H](C(=O)O)C3)cn2)c1CNc1nccc(-c2ccccn2)n1 [Example 13] — 2.3-fold higher, 32 nM
- Cc1nc(-c2onc(C)c2CNc2ncnc(C3CCCC3)n2)ccc1O[C@H]1CCC[C@H](C(=O)O)C1 [Example 21] — 4.3-fold higher, 60 nM
- Cc1cnc(NCc2c(C)noc2-c2ccc(O[C@H]3CCC[C@H](C(=O)O)C3)cn2)nc1-c1ccccc1 [Example 15] — 2.9-fold lower, 4.9 nM
- Cc1noc(-c2ccc(O[C@@H]3CCC[C@H](C(=O)O)C3)cc2)c1COc1nccc(-c2ccccc2)n1 (racemic) [Example 29, (±)-Cis-3-(4-(3-Methyl-4-(((4-phenylpyrimidin-2-yl)oxy)methyl)isoxazol-5-yl)phenoxy)cyclo-hexanecarboxylic Acid] — 15-fold higher, 209 nM
- Cc1noc(-c2ccc(O[C@H]3CCC[C@H](C(=O)O)C3)cn2)c1CNc1nccc(C2CC2)n1 [Example 10] — within 1.5-fold, 18 nM
- Cc1noc(-c2ccc(O[C@H]3CCC[C@H](C(=O)O)C3)cn2)c1CNc1nccc(-c2ccccc2)n1 [Example 3] — within 1.5-fold, 18 nM
- Cc1cc(OC(C)C)nc(NCc2c(C)noc2-c2ccc(O[C@H]3CCC[C@H](C(=O)O)C3)cn2)n1 [Example 11] — within 1.5-fold, 17 nM
- CCOc1ccnc(NCc2c(C)noc2-c2ccc(O[C@H]3CCC[C@H](C(=O)O)C3)cn2)n1 [Example 23] — the same, 14 nM
- Cc1nc(-c2onc(C)c2CNc2ncc(F)c(NC(C)C)n2)ccc1O[C@H]1CCC[C@H](C(=O)O)C1 [Example 18] — 6.3-fold higher, 88 nM
- Cc1cc(Oc2ccccc2)nc(NCc2c(C)noc2-c2ccc(O[C@H]3CCC[C@H](C(=O)O)C3)cn2)n1 [Example 9] — within 1.5-fold, 20 nM
- Cc1nc(-c2onc(C)c2CNc2ncnc(C3CC3)n2)ccc1O[C@H]1CCC[C@H](C(=O)O)C1 [Example 19] — 5.4-fold higher, 76 nM
- Cc1cc(-c2ccccc2)nc(NCc2c(C)noc2-c2ccc(O[C@H]3CCC[C@H](C(=O)O)C3)cn2)n1 [Example 8] — within 1.5-fold, 16 nM
- Cc1noc(-c2ccc(O[C@H]3CCC[C@H](C(=O)O)C3)cn2)c1CNc1ncnc(C2CCCC2)n1 [Example 28] — 1.7-fold higher, 24 nM
- Cc1noc(-c2ccc(O[C@H]3CCC[C@H](C(=O)O)C3)cn2)c1CNc1ncc(F)c(NC(C)C)n1 [Example 24] — 2.3-fold higher, 32 nM
- Cc1nc(-c2onc(C)c2CNc2ncnc(C3CCC3)n2)ccc1O[C@H]1CCC[C@H](C(=O)O)C1 [Example 20] — 4.6-fold higher, 64 nM
